In brackets after ≈: the same amount, converted by molar mass. Read-outs that look alike come from different tables or passages of the source. Square brackets hold non-standard residues; d marks the D form. Peptide text beside a SMILES is read from it. N(4-F-Bzl)Gly = O=C(O)CNCc1ccc(F)cc1; Gly(N-2-aminoethyl) = NCCNCC(=O)O; Nspe = C[C@H](NCC(=O)O)c1ccccc1; Nlys = NCCCCNCC(=O)O Where only a bound is given, the exact number is not on record here.

The subject of assay [1] is methicillin-resistant Staphylococcus aureus USA 300.
Assay [2] has the same test system. Kind of assay: microbe, parasite or virus in culture. As to conditions: MRSA / USA300, read-out: MIC S. aureus (USA300).
The subject of a further assay is epithelial HepG2 cells. Put plainly: Cytotoxicity assay (alamarBlue cell viability), HepG2. The class given is cell-based. As to conditions: 1 hour with compound 2–100 µM, then 24 hours. How it is done:
(§1) Cytotoxicity analyses were performed in 96-well plates (Costar, Fisher Scientific) using alamarBlue® (Invitrogen) for cell viability detection using a modified protocol as previously described.9 The HepG2 or HaCaT cells were grown at 37 °C, 5 % CO2 in DMEM10 high glucose supplemented with heat-inactivated foetal bovine sera (FBS, 10 %; Biosera Ltd) and penicillin/streptomycin (P/S, 1 %). Cells were counted using a Neubauer Improved Haemocytometer. Cells were seeded 1 day prior to treatment in 96 well plates at a concentration of 2 x 10^5 cells mL-1 in 100 µL of medium (2 x 10^4 cells/well). Empty wells were filled with 100 µL PBS. After 24 hours, cells were incubated with the compounds in a dilution series in triplicate from 2–100 µM (5 mM stock solutions in DMSO; untreated cells with DMSO as a negative control) in 50 µL of the media for 1 hour. Afterwards, 40 µL of medium was removed from each well before the addition of 90 µL of the media, followed by incubation for 24 hours at 37 °C, 5 % CO2. Then, 10 µL of alamarBlue® (Invitrogen) was added to each well before a 2 hour incubation prior to assessing cell viability using a fluorescent plate reader (Biotek; λex 560 nm, λem 600 nm).
A general note: Alamar Blue is a resazurin reagent that responds to reducing activity.

The next assay deals with HaCaT keratinocytes. Put plainly: Cytotoxicity assay (alamarBlue cell viability), HaCaT. In kind it is cell-based. As to conditions: 1 hour with compound 2–100 µM, then 24 hours. How it is done: as §1
The subject of another assay is S. aureus. As to conditions: had shown promising antibacterial activities; strain and reference not given; cited from earlier work.

Regarding `C=C1NC(=O)[C@H]([C@@H](C)CC)NC(=O)[C@H](NC(=O)/C(=C/C)NC(=O)[C@@H](N)[C@@H](C)CC)CSC[C@@H](C(=O)N[C@H]2C(=O)N3CCC[C@H]3C(=O)NCC(=O)N[C@H](C(=O)N[C@@H](CCCCN)C(=O)O)CS[C@H]2C)NC(=O)[C@H](CC(C)C)NC1=O` [compound 4, Nisin[1,2,3,4,5,6,7,8,9, 10, 11, 12], reference compound], the “MIC S. aureus (USA300)” value in assay [1] (MRSA USA300, CAMHB, overnight incubation 35 °C, visual inspection, duplicate) is on record as over 100 µM.
Consider `CN[C@H](CC(C)C)C(=O)N[C@H]1C(=O)N[C@@H](CC(N)=O)C(=O)N[C@H]2C(=O)N[C@H]3C(=O)N[C@H](C(=O)N[C@H](C(=O)O)c4cc(O)cc(O)c4-c4cc3ccc4O)[C@H](O)c3ccc(c(Cl)c3)Oc3cc2cc(c3O[C@@H]2O[C@H](CO)[C@@H](O)[C@H](O)[C@H]2O[C@H]2C[C@](C)(N)[C@H](O)[C@H](C)O2)Oc2ccc(cc2Cl)[C@H]1O` [compound 7, Vancomycin], for which, in assay [2], the MIC was 1 µM (≈ 1.45 µg/mL).
With `C[C@@H](c1ccccc1)N(CC(N)=O)C(=O)CN(C(=O)CN(CCCCN)C(=O)CN(Cc1ccc(F)cc1)C(=O)CN(Cc1ccc(F)cc1)C(=O)CN(CCCCN)C(=O)CN(C(=O)CN(C(=O)CN(CCCCN)C(=O)CN(Cc1ccc(F)cc1)C(=O)CN(Cc1ccc(F)cc1)C(=O)CNCCCCN)[C@@H](C)c1ccccc1)[C@@H](C)c1ccccc1)[C@@H](C)c1ccccc1` [1b, [(NLysNpfbNpfb)(NLysNspeNspe)]2] (H-[Nlys][N(4-F-Bzl)Gly][N(4-F-Bzl)Gly][Nlys][Nspe][Nspe][Nlys][N(4-F-Bzl)Gly][N(4-F-Bzl)Gly][Nlys][Nspe][Nspe]-NH2; N-terminus and C-terminus assumed), the “ED50 HepG2” value in the assay with epithelial HepG2 cells stood at 18 µM. Also, the “ED50 HaCaT” value with HaCaT keratinocytes was 53 µM. Besides, in assay [1] (USA 300), the “MIC S. aureus (USA300)” value lay in the range of 2 to 4 µM. In the assay with S. aureus, the “MIC against S. aureus (reason for choosing the sequences)” value is “below 2 µM”.
In the case of `C[C@@H](c1ccccc1)N(CC(N)=O)C(=O)CN(C(=O)CN(CCN)C(=O)CN(C(=O)CN(C(=O)CN(CCN)C(=O)CN(C(=O)CN(C(=O)CN(CCN)C(=O)CN(C(=O)CN(C(=O)CNCCN)[C@@H](C)c1ccccc1)[C@@H](C)c1ccccc1)[C@@H](C)c1ccccc1)[C@@H](C)c1ccccc1)[C@@H](C)c1ccccc1)[C@@H](C)c1ccccc1)[C@@H](C)c1ccccc1` [1a, (NaeNspeNspe)4] (H-[Gly(N-2-aminoethyl)][Nspe][Nspe][Gly(N-2-aminoethyl)][Nspe][Nspe][Gly(N-2-aminoethyl)][Nspe][Nspe][Gly(N-2-aminoethyl)][Nspe][Nspe]-NH2; N-terminus and C-terminus assumed), the “ED50 HepG2” value in the assay on epithelial HepG2 cells came out at 15 µM. In the assay with HaCaT keratinocytes, the “ED50 HaCaT” value was 26 µM. Moreover, the “MIC S. aureus (USA300)” value in assay [1] (USA 300) was determined as 2 µM (≈ 3.41 µg/mL). Moreover, the “MIC against S. aureus (reason for choosing the sequences)” value in the assay on S. aureus is recorded as “below 2 µM”.
